# In patent US8709738B2, “Methods for predicting cardiac toxicity” (Quintiles Transnational Corporation, priority 2006, dated 2014):
# “And” between values parts separate entries of the source, which are not always exact repeats. Equal values may be shown once. “Also recorded” adds a separate entry of the source.
# Key:
# Au565 cells [1] = test: Acylcarnitines (byproducts of mitochondrial fatty acid oxidation) by MS/MS in treated Au565 cells; assay type: cell-based; settings: Au565 cell pellet, GW2974 25 μM, 2 days
# From the text: (§1) In addition, tyrosine kinase inhibitors can be used to reduce fat in cells, particularly cells that are otherwise normal or that lack protein tyrosine kinase activity mediated disease. To this end at least a portion of a mammal or tissue can be treated with a kinase inhibitor such that the amount of lipid in the cells is reduced. Any suitable kinase inhibitor can be used. Methods for determining suitable inhibitors are well known. For example, samples of adipocytes can be grown in the presence and absence of a kinase inhibitor and stained with Oil red 0 by known methods to determine whether the kinase inhibitor causes a reduction in stored fat. Those kinase inhibitors that cause an observable reduction in fat storage are suitable for the present invention. Exemplary kinase inhibitors that are suitable for the invention include erbB inhibitors, especially including GW2974, GW572016, and the like. […] Au565 cells were grown under normal conditions known in the art and treated for 2 days with GW2974 (25 μM). The cells were collected, washed and sonicated in water (2,000,000 cells in 200 μL of water). The cells were spun down and were tested for acylcamitines (byproducts of mitochondrial fatty acid oxidation) by MS/MS for intraceullar metabolites.
# Au565 cells [2] = test: Microarray mRNA expression profile of Au565 cells treated with GW2974; assay type: cell-based, human; settings: GW2974 25 μM vs untreated
# Experimental: Au565 cells were grown under normal conditions and were untreated or treated with GW2974 (25 μM). Cells were pelleted, snap frozen in liquid nitrogen and subjected to microarray analysis. RNA was isolated using the Agilent Total RNA Isolation Kit. Cy3 and Cy5 labeled cRNA was prepared using the Agilent Low RNA Input Fluorescent Linear Amplification Kit. Labeled cRNAs were hybridized to a G4110A Human 1A(V2) microarray consisting of 60-mer oligonucleotides representing over 18K well-characterized, full length, human genes.
# Au565 cells [3] = test: Oil red lipid staining of Au565 cells; assay type: cell-based; settings: FIG. 2 and FIG. 3
# [4] = system: primary human cardiac myocytes; test: Lipid staining of cardiomyocytes; assay type: cell-based; settings: FIG. 4
# From the text: FIG. 4 are photographs of primary human cardiac myocytes grown under various conditions and stained for lipids.
# FIG. 5 is a bar graph illustrating the percentage of human cardiomyocytes testing positive for lipids under various conditions.
# [5] = system: normal fat cells grown in culture; test: Lipid stored in cultured fat cells (Oil red O staining); assay type: cell-based; settings: normal fat cells (adipocytes) grown in culture, also cardiac cells
# From the text: Such studies can be conducted using Oil red 0 staining for lipids.
# as §1, with “To” for “In addition, tyrosine kinase inhibitors can be used to reduce fat in cells, particularly cells that are otherwise normal or that lack protein tyrosine kinase activity mediated disease. To”, “Those kinase inhibitors that cause an observable reduction in fat storage are suitable for the present invention.” left out
# [6] = system: MDA-MB-468 breast cancer cells; test: Intracellular calcium detected by Fluoro-4; assay type: cell-based; settings: MDA-MB-468 cells, Fluoro-4, FIG. 6
# From the text: FIG. 6 are photographs of MDA-MB-468 cells treated by GW-2974 and intracellular Ca detected by Fluoro-4.
# (§2) This can be seen in MDA-MB-468 breast cancer cells where calcium is detected by fluorescently by Fluoro-4. This redistribution of calcium results in the activation and phosphorylation of AMPK. Activated AMPK represses translation by phosphorylation of the translation factor eEF-2 (FIG. 7), which inactivates eEF-2 and represses protein synthesis, a known effect of TKIs.
# Au565 cells [7] = test: Western blot for p-eEF-2; assay type: cell-based; settings: FIG. 7A
# From the text: FIG. 7A a photograph of a Western Blot showing the affect of certain tyrosine kinase inhibitors on expression p-eEF2 and p-AMPKα.
# as §2
# Au565 cells [8] = test: p-eEF-2 expression by IHC; assay type: cell-based; settings: FIG. 7B
# From the text: FIG. 7B is a photograph of stained cells showing the expression of p-eEF2 in Au565 cells in the presence of various compounds.
# cardiomyocytes cells = test: ERRα and MCAD in cardiomyocytes treated with kinase inhibitors; assay type: cell-based; settings: FIG. 8
# From the text: FIG. 8 is a photograph of ERRα and MCAD in cardiomyocytes cells with and without treatment by various kinase inhibitors.
# ERRα plays a role in lipid metabolism in cardiac cells, and MCAD is an enzyme that breaks down lipids and fatty acids. Mutations in MCAD is a common genetic disorder, especially in those of northern European descent.
# [9] = system: HER2-expressing human cardiomyocytes; test: AMPK activation, ATP production and TNFα-induced apoptosis in cardiomyocytes; assay type: cell-based
structure (smiles),measurement,setting,value
CN(C)c1cc2c(Nc3ccc4c(cnn4Cc4ccccc4)c3)ncnc2cn1 [GW2974],Acylcarnitines C2,Au565 cells [1],258.88 pmoles of protein
same,Acylcarnitines C16,Au565 cells [1],0.83 pmoles of protein
same,Acylcarnitines C18:1,Au565 cells [1],4.1 pmoles of protein
same,ACAT2: GW2974 change compared to control,Au565 cells [2],−5.3
same,AKAP5: GW2974 change compared to control,Au565 cells [2],−7.3x
same,AVIL: GW2974 change compared to control,Au565 cells [2],4.2x
same,BBOX1: GW2974 change compared to control,Au565 cells [2],5.1
same,CAMK4: GW2974 change compared to control,Au565 cells [2],4.5x
same,CASK: GW2974 change compared to control,Au565 cells [2],−4.2x
same,CCR2: GW2974 change compared to control,Au565 cells [2],−5.0x
same,CD38: GW2974 change compared to control,Au565 cells [2],−4.4x
same,CLCA1: GW2974 change compared to control,Au565 cells [2],−6.7x
same,CLSP: GW2974 change compared to control,Au565 cells [2],−4.0x
same,CYP2C8: GW2974 change compared to control,Au565 cells [2],4.5x
same,ELOVL2: GW2974 change compared to control,Au565 cells [2],−4.4x
same,FABP1: GW2974 change compared to control,Au565 cells [2],−7.2
same,FASN: GW2974 change compared to control,Au565 cells [2],−4.3x
same,FKSG14: GW2974 change compared to control,Au565 cells [2],−4.6x
same,FLJ12476: GW2974 change compared to control,Au565 cells [2],5.0x
same,FREQ: GW2974 change compared to control,Au565 cells [2],−5.3x
same,GLS: GW2974 change compared to control,Au565 cells [2],5.1
same,GNB5: GW2974 change compared to control,Au565 cells [2],−4.1x
same,GSTT2: GW2974 change compared to control,Au565 cells [2],−5.3
same,HPCAL1: GW2974 change compared to control,Au565 cells [2],−4.5x
same,HSPA8: GW2974 change compared to control,Au565 cells [2],−4.2x
same,LDLR: GW2974 change compared to control,Au565 cells [2],−5.2x
same,NRXN3: GW2974 change compared to control,Au565 cells [2],4.58x and 4.6x
same,PFKL: GW2974 change compared to control,Au565 cells [2],−4.7
same,PRKG1: GW2974 change compared to control,Au565 cells [2],6.5x and 6.51x
same,SAT: GW2974 change compared to control,Au565 cells [2],4.4
same,SCN1A: GW2974 change compared to control,Au565 cells [2],4.1x
same,SOAT1: GW2974 change compared to control,Au565 cells [2],−4.0x
same,STK33: GW2974 change compared to control,Au565 cells [2],−5.3x
same,TGFβ1: GW2974 change compared to control,Au565 cells [2],5.31x
same,S100A9: GW2974 change compared to control,Au565 cells [2]; Table IV A,−5.5x
same,S100A9: GW2974 change compared to control,Au565 cells [2]; Table IV C,−5.4
same,lipids in Au565 cells (oil red staining),Au565 cells [3],reduced
same,lipids in cardiomyocyte cells compared with untreated cells,[4],not decrease
same,lipid stored within fat cells,[5],rapidly disappears; also recorded: lose lipid
same,intracellular calcium distribution,[6],redistribution of intracellular calcium
same,p-eEF-2 by western blot,Au565 cells [7],dramatically increased
same,p-eEF-2 expression by IHC,Au565 cells [8],do
same,MCAD expression,cardiomyocytes cells,completely absent
same,AMPK activation,[9],can activate AMPK
same,ATP production,[9],increases ATP production
same,cardiomyocyte apoptosis / cell death induced by TNFα,[9]; TNFα,protecting against apoptosis induced by TNFα
COc1cc2ncnc(Nc3ccc(F)c(Cl)c3)c2cc1OCCCN1CCOCC1 [Iressa],p-eEF-2 expression by IHC,Au565 cells [8],do
CS(=O)(=O)CCNCc1ccc(-c2ccc3ncnc(Nc4ccc(OCc5cccc(F)c5)c(Cl)c4)c3c2)o1 [lapatinib],lipid stored within fat cells,[5],loss of fat
same,lipid stored within fat cells,[5]; listed as GW572016,rapidly disappears
